We go through six molecules from article PMC4139204, “Insight into the Architecture of the NuRD Complex” (The Journal of Biological Chemistry, 2014).

For orientation: Kd means the concentration at which binding is half-saturated.

Entries after “also recorded” stand apart in the source; their conditions may differ.

Test [1] concerns the target T1, RbAp48 (Homo sapiens, UniProt Q09028).
T1 construct: made in house; host or cells: insect cells
In words: GST pulldown of in vitro translated 35S-RbAp48 by GST-MTA1 fragments. Type of test: binding. Particulars: GST-MTA1 fusion on glutathione-Sepharose beads with in vitro translated 35S-labeled RbAp48, 2 h, 4 °C; SDS-PAGE and autoradiography. An excerpt:
FLAG-tagged human RbAp48 (Uniprot: Q09028) was constructed by PCR and cloned into pcDNA3. MTA1 constructs (residues 1–250, 230–550, and 530–715) were generated by PCR amplification of the human gene (Uniprot: Q13330) and cloned into pcDNA3. MTA1 constructs (residues 530–635, 625–715, 643–695, and 656–686) were created by PCR amplification from codon-optimized sequences for bacterial expression (GenScript) and cloned into pGEX-6P with an N-terminal GST tag.
pcDNA3 constructs were expressed in vitro in the presence of [^35S]methionine. GST-MTA1 constructs were expressed in the BL21 strain of Escherichia coli and induced with 0.4 mM isopropyl 1-thio-β-D-galactopyranoside. The culture was incubated with shaking at 25 °C overnight, and the protein was subsequently purified by glutathione affinity chromatography. GST-H4-(1–48) was expressed and purified by glutathione affinity chromatography as described previously ([16]). Recombinant RbAp48 was expressed and purified from insect cells as described previously ([17]).
GST pulldown assays were performed by incubating equal amounts of GST or GST-MTA1 fusion proteins immobilized on glutathione-Sepharose beads (Amersham Biosciences) with in vitro translated ^35S-labeled RbAp48. The mixtures were incubated for 2 h at 4 °C and washed 5 times with binding buffer. Complexes were resolved by SDS-PAGE and visualized by autoradiography.

Test [2] concerns the target T1, RbAp48. In words: Isothermal titration calorimetry (ITC) of MTA1 peptides binding to RbAp48. The settings on record: MicroCal iTC200, 25 °C, 20 mM Tris, pH 7.5, 150 mM NaCl, MTA1 peptide (250 μM) titrated into RbAp48 (25 μM, 200 μl), 20 injections of 2 μl, single-site 1:1 fit, representative measurement, standard error from single curve fit, each titration in duplicate, read-out: dissociation constant (KD). As for the experimental part:
pcDNA3 constructs were expressed in vitro in the presence of [^35S]methionine. […] GST-H4-(1–48) was expressed and purified by glutathione affinity chromatography as described previously ([16]). Recombinant RbAp48 was expressed and purified from insect cells as described previously ([17]).
ITC measurements were carried out at 25 °C using a MicroCal iTC200 titration calorimeter. […] The reference power was set to 2 μcal/s, and the cell was stirred continuously at 1000 rpm. The evolved heats were integrated and normalized for protein concentration.
On the technique in general: In ITC the heat of successive injections is recorded.

In test [3] the test system is MTA1-RbAp48 complex. In words: Competition pulldown: FOG1-(1–15) peptide added to MTA1-FLAG-RbAp48 complex. Particulars: FLAG-RbAp48 on anti-FLAG beads; for effect of FOG1 peptide on MTA1-RbAp48 interaction: increasing amounts of FOG1-(1–15) peptide. Type of test: binding, human. How it is done:
RbAp48 and MTA1 constructs were in vitro translated in the presence of ^35S-labeled methionine using the TNT Quick Coupled Transcription/Translation kit (Promega) according to the manufacturer's instructions. In vitro translated ^35S-labeled FLAG-RbAp48 (20 μl) was immobilized onto agarose beads conjugated to anti-FLAG (M2) antibodies (Sigma) in binding buffer (50 mM Tris, pH 7.5, 300 mM NaCl, 0.5% Triton X-100, complete protease inhibitor mixture tablet (Roche Applied Science), and 1 mM DTT). The mixture was incubated with in vitro translated ^35S-labeled-MTA1 fragments (40 μl) at 4 °C for 2 h. The beads were then washed five times with binding buffer. Anti-FLAG beads alone were used as a negative control. Complexes were resolved by SDS-PAGE and visualized by autoradiography.
(§1) The structural data provide clear evidence that histone H4 and MTA1 bind mutually exclusively to RbAp48. […] Competition-binding experiments were performed to assess whether full-length MTA1 might inhibit the interaction of RbAp48 with H3 or FOG1 peptides and to confirm that H4 and MTA1 bind mutually exclusively to RbAp48. GST-H4-(1–48) was expressed in bacteria, immobilized onto glutathione beads, and used to pull down RbAp48 in the absence and presence of full-length MTA1 (Fig. 7A). In a complementary experiment (Fig. 7B), in vitro translated FLAG-RbAp48 was immobilized on anti-FLAG beads and used to pull down MTA1 in the absence and presence of histone H4-(1–48).
(§2) FIGURE 7. […] A, pulldown showing the binding of in vitro translated ^35S-labeled RbAp48 to GST-histone H4-(1–48) (immobilized on glutathione beads) in the absence and presence of in vitro translated MTA1. B, pulldown showing the binding of in vitro translated ^35S-labeled MTA1 to FLAG-RbAp48 (immobilized on anti-FLAG beads) in the absence and presence of histone H4-(1–48). C, pulldown assays showing the effect of adding increasing amounts of FOG1-(1–15) peptide to a complex formed between in vitro translated ^35S-labeled FLAG-RbAp48 (immobilized on anti-FLAG beads) and in vitro translated ^35S-labeled full-length MTA1 or MTA1-(530–715). […]

For test [4], the system named is RbAp46/48. Particulars: GST pulldown; ref [47]; cited from earlier work. An excerpt:
Previous studies using GST pulldown assays have mapped the domains that mediate the interaction between MTA1/2 and RbAp46/48. […] Our crystallographic and biochemical data reveal that a short motif near the C-terminal end of MTA1 is able to bind ind ...

Test [5] has as its system RbAp46 mutant (E356Q, D357N, E359Q, D360N, L30Y). The settings on record: D360N and L30Y; cited from earlier work.
The target of test [6] is RbAp46. The settings on record: for RbAp46; ref [16]; cited from earlier work.
Test [7] has as its system MTA1-RbAp48 complex. In words: Competition pulldown: FLAG-RbAp48 pulls down MTA1 in absence and presence of histone H4-(1–48). Particulars: FLAG-RbAp48 on anti-FLAG beads, in vitro translated 35S-labeled MTA1, absence and presence of histone H4-(1–48). Type of test: binding, human. As for the experimental part: as §1, §2

T1 sequence (Q09028 whole entry): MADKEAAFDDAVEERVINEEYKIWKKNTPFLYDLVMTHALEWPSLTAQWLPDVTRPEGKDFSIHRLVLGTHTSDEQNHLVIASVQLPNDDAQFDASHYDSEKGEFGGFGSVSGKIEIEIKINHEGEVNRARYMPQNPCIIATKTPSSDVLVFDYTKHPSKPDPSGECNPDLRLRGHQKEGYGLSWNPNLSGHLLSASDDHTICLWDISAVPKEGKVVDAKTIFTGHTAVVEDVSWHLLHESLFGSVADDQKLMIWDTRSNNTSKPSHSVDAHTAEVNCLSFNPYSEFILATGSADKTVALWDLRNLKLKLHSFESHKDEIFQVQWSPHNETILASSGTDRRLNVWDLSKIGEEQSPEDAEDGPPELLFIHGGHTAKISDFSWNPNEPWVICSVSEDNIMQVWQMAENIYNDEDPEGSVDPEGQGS

For `CC[C@H](C)[C@H](NC(=O)[C@H](CCCCN)NC(=O)[C@H](CCCNC(=N)N)NC(=O)[C@@H](NC(=O)[C@H](CCC(=O)O)NC(=O)[C@H](CCC(=O)O)NC(=O)[C@@H](NC(=O)[C@H](C)NC(=O)[C@H](CCSC)NC(=O)[C@H](Cc1ccc(O)cc1)NC(=O)[C@H](Cc1ccccc1)NC(=O)[C@@H](NC(=O)[C@H](CC(=O)O)NC(C)=O)C(C)C)[C@@H](C)O)[C@@H](C)O)C(=O)N[C@@H](CCCNC(=N)N)C(=O)N[C@@H](CCCCN)C(=O)N[C@@H](CC(C)C)C(=O)N[C@@H](CC(C)C)C(=O)N[C@@H](CO)C(=O)N[C@@H](CO)C(=O)N[C@@H](CO)C(=O)N[C@@H](CCC(=O)O)C(=O)N[C@H](C(=O)N[C@@H](CCCCN)C(=O)N[C@@H](CCCNC(=N)N)C(=O)N[C@@H](C)C(=O)N[C@@H](C)C(=O)N[C@@H](CCCNC(=N)N)C(=O)N[C@@H](CCCNC(=N)N)C(=O)N1CCC[C@H]1C(=O)N[C@@H](Cc1ccc(O)cc1)C(=O)N[C@@H](CCCCN)C(N)=O)[C@@H](C)O` [MTA1-(656–686)], the “binding to RbAp48 in GST pulldown” value in test [1] is reported as “sufficient to bind RbAp48; also recorded: shortest fragment of MTA1 capable of pulling down in vitro translated RbAp48”.
Take “Ac-KLLSSSETKRAARRPYKPIALRQSQA-NH2 [MTA1-(670–695)]”: in test [2], the Kd stood at 50 ± 7 nM.
Turning to “FOG1-(1–15): peptide (residues 1–15) derived from the co-regulator FOG1”, the “effect of FOG1 peptide on MTA1-RbAp48 interaction” value is “The same result was observed” in test [3] (C-terminal MTA1 fragment (residues 530–715)) and “unable to interfere with the MTA1-RbAp48 interaction” in test [3] (full-length MTA1). For the same molecule, the “competition for binding to RbAp48 (Fig. 7 title)” value in test [3] (Fig. 7, full-length MTA1 or MTA1-(530–715)) is reported as “do not compete for binding to RbAp48”.
Turning to “GATA-type zinc finger domain of MTA1 (residues 392–448): predicted GATA-type zinc finger domain of MTA1 (ACESCYTTQSYQWYSWGPPNMQCRLCASCWTYWKKYGGLKMPTRLDGERPGPNRSNM; GATA-type zinc finger; UniProt Q13330 392-448, looked up, fragment)”, the “recognition of RbAp46/48” value in test [4] is listed as “sufficient to recognize RbAp46/48”.
For the molecule “GST-tagged H4 (residues 1–48): GST-H4-(1–48) expressed in bacteria and purified by glutathione affinity chromatography”, in test [5], the “effect of RbAp46 mutations on interaction with H4” value is recorded as “abrogate its interaction”.
As for H4-(1–48): histone H4 residues 1–48, the Kd in test [6] is 1000 nM. Besides, the “competition of histone H4 with MTA1 for RbAp48” value in test [7] is “compete for the same binding surface on RbAp48”.
